Measurements taken from patent US9206199B2, “Inhibitors of the renal outer medullary potassium channel” (Merck Sharp & Dohme Corp., priority 2011, dated 2015).
Like-named read-outs stand apart in the source and are kept apart here.

Columns and labels:
[1] = molecular target: Kir1.1 (ROMK1) (Homo sapiens (Human), UniProt P48048); assay: Electrophysiology Assay (IonWorks Quattro whole cell voltage clamp)
Experimental: Chinese hamster ovary cells stably expressing Kir1.1 channels were maintained in T-75 flasks in cell culture media in a humidified 10% CO2 incubator at 37° C. Prior to an experiment, Kir1.1 expression was induced by overnight incubation with 1 mM sodium butyrate. […] After centrifugation, the cell pellet was resuspended in approximately 4.0 mL of bath solution and placed in the IonWorks instrument. The intracellular solution consisted of (in mM): 80 K gluconate, 40 KCl, 20 KF, 3.2 MgCl2, 3 EGTA, 5 Hepes, pH 7.4. Electrical access to the cytoplasm was achieved by perforation in 0.13 mg/mL amphotericin B for 4 min. […] Voltage protocols and current recordings were performed using the IonWorks HT software/hardware system. Currents were sampled at 1 kHz. No correction for liquid junction potentials was used. The test pulse, consisting of a 100 ms step to 0 mV from a holding potential of −70 mV, followed by a 100 ms voltage ramp from −70 mV to +70 mV, was applied before and after a 6 min compound incubation period. Test compounds were prepared by diluting DMSO stock solutions into the bath solution at 3× the final concentration and placed in the instrument in 96-well polypropylene plates. Current amplitudes were measured using the IonWorks software.

[2] = molecular target: hROMK (hKir1.1) (Homo sapiens (Human), UniProt P48048); assay: Thallium Flux Assay; format: cell-based
Sequence of hROMK (hKir1.1) (P48048 whole entry): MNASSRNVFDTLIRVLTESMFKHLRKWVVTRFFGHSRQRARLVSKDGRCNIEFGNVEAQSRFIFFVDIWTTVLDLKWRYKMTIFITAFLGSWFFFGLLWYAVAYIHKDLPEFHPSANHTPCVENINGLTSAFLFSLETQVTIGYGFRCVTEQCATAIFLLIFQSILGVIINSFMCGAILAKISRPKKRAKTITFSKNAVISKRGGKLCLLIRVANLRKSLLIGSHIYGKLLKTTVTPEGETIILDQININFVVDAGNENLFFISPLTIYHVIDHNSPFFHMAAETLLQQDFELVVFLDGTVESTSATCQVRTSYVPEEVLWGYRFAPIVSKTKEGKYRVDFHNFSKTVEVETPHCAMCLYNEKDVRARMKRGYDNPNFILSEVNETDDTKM
Experimental: At >80% confluency, aspirate the media from the flask and rinse with 10 mL Calcium/Magnesium-free PBS. […] To dislodge the cell, gently bang the side of the flask with your hand. Triturate the cells completely and then transfer the cells to 25 mL complete media. Centrifuge at 1,500 rpm for 6 min followed by resuspension in complete growth media and determine cell concentration. […] Under ideal growth conditions and appropriate tissue culture practices, this cell line is stable for 40-45 passages. FluxOR Kit Components (Invitrogen F10017) • FluxOR™ Reagent (Component A) • FluxOR™ Assay Buffer (Component B)—10× Concentrate • PowerLoad™ Concentrate (Component C)—100× Concentrate • Probenecid (Component D)—Lyophilized sample is kept at −20° C. Water soluble, 100× after solubilization in 1 mL water. […] Store at 4° C. • Thallium sulfate (Tl2SO4) Concentrate (Component G)—50 mM in water. […]
The fluorescence intensity of wells containing 3 μM of a standard control ROMK inhibitor of the present invention is used to define the ROMK-sensitive component of thallium flux. Fluorescence in the presence of test compounds is normalized to control values to provide % fluorescence change.

Sequence of Kir1.1 (ROMK1) (P48048 whole entry): as above

Work on O=C1OCCc2cc([C@@H]3CN4CCN(C(=O)Cc5ccc(-n6cnnn6)nc5)C[C@H]4CO3)ccc21 [Example 1] yielded an IC50 [1] of 60 nM.
For Cc1nc(-n2cnnn2)ccc1CC(=O)N1CCN2C[C@H](c3ccc(F)c(C#N)c3F)OC[C@@H]2C1 [Example 89, 2,6-difluoro-3-[(3S,9aS)-8-{[2-methyl-6-(1H-tetrazol-1-yl)pyridin-3-yl]acetyl}octahydropyrazino[2,1-c][1,4]oxazin-3-yl]benzonitrile], the IC50 [2] was 70 nM.
Work on N#Cc1cc([C@@H]2CN3CCN(C(=O)Cc4cnc(-n5cnnn5)nc4)C[C@H]3CO2)ccc1F [Example 142, 2-fluoro-5-[(3R,9aS)-8-{[2-(1H-tetrazol-1-yl)pyrimidin-5-yl]acetyl}octahydropyrazino[2,1-c][1,4]oxazin-3-yl]benzonitrile] yielded an IC50 ([2]; HEK293 cells stably expressing hROMK (hKir1.1), FLIPR-Tetra, read-out: Thallium Flux IC50) of 100 nM.
